Results on 13 compounds are retold here after US20060264493A1, “Tetracyclic pyrazole derivatives as kinase inhibitors, process for their preparation and pharmaceutical compositions comprising them” (priority 2003, published 2006).

The compound `COC(=O)c1ccc2c3c([nH]c2c1)-c1[nH]ncc1CC3` [Example 12, Methyl 1,4,5,10-tetrahydropyrazolo[3,4-a]carbazole-8-carboxylate] came in with a melting point of 240 to 243 °C.

Turning to `CCOC(=O)c1[nH]nc2c1CCc1c-2[nH]c2ccccc12` [Example 5, Ethyl 2,4,5,10-tetrahydropyrazolo[3,4-a]carbazole-3-carboxylate], the melting point was in the range of 224 to 226 °C.

For `Cl.Nc1ccc2[nH]c3c(c2c1)CCc1cn[nH]c1-3`, the melting point was in the range of 237 to 241 °C.

In turn, `O=[N+]([O-])c1ccc2[nH]c3c(c2c1)CCc1c[nH]nc1-3` [Example 1, 7-Nitro-2,4,5,10-tetrahydropyrazolo[3,4-a]carbazole] came in with a melting point of over 260 °C.

Regarding `CC(C)CC(=O)Nc1ccc2[nH]c3c(c2c1)CCc1cn[nH]c1-3` [Example 7, 3-Methyl-N-(1,4,5,10-tetrahydropyrazolo[3,4-a]carbazol-7-yl)butanamide], the melting point is 182 to 185 °C.

Turning to `CC(C)CNC(=O)c1ccc2[nH]c3c(c2c1)CCc1cn[nH]c1-3` [Example 9, N-isobutyl-1,4,5,10-tetrahydropyrazolo[3,4-a]carbazole-7-carboxamide], the melting point lay in the range of 186 to 190 °C.

The compound `O=C(Nc1ccc2[nH]c3c(c2c1)CCc1cn[nH]c1-3)c1cccs1` [Example 8, N-(1,4,5,10-tetrahydropyrazolo[3,4-a]carbazol-7-yl) thiophene-2-carboxamide] showed a melting point of 176 to 180 °C.

`O=C(O)c1cccc2[nH]c3c(c12)CCc1c[nH]nc1-3` [Example 3, 2,4,5,10-Tetrahydropyrazolo[3,4-a]carbazole-6-carboxylic acid] yielded a melting point of over 260 °C.

In the case of `Cl.O=C(O)c1n[nH]c2c1CCc1c-2[nH]c2ccccc12`, the melting point was over 260 °C.

The compound `CN1CCN(C(=O)c2ccc3[nH]c4c(c3c2)CCc2cn[nH]c2-4)CC1` [Example 10, 7-[(4-Methylpiperazin-1-yl)carbonyl]-1,4,5,10-tetrahydropyrazolo[3,4-a]carbazole] returned a melting point of 198 to 205 °C.

Compound `CCOC(=O)c1ccc2[nH]c3c(c2c1)CCc1cn[nH]c1-3` [Example 11, Ethyl 1,4,5,10-tetrahydropyrazolo[3,4-a]carbazole-7-carboxylate] had a melting point of 214 to 216 °C.

Consider `O=C(O)c1ccc2[nH]c3c(c2c1)CCc1c[nH]nc1-3` [Example 2, 2,4,5,10-Tetrahydropyrazolo[3,4-a]carbazole-7-carboxylic acid], for which the melting point is over 260 °C.

`O=C(O)c1ccc2c3c([nH]c2c1)-c1n[nH]cc1CC3` [Example 4, 2,4,5,10-Tetrahydropyrazolo[3,4-a]carbazole-8-carboxylic acid] had a melting point of over 260 °C.
